Data reported in patent publication US12668594B2, “TYK2 inhibitors and uses thereof” (Sudo Biosciences Limited, priority 2020, dated 2026).

Legend:
TYK2-JH1 = biological target: T1, TYK2-JH1 (Homo sapiens, UniProt P29597); assay: HTRF-based selectivity assay, TYK2 catalytic domain; assay type: biochemical; details: kinase domain (JH1), ATP 20 μM
T1 construct: recombinant purified His or GST-tagged catalytic domain for each enzyme; made in house
T1 sequence (P29597 897-1176 limits assumed): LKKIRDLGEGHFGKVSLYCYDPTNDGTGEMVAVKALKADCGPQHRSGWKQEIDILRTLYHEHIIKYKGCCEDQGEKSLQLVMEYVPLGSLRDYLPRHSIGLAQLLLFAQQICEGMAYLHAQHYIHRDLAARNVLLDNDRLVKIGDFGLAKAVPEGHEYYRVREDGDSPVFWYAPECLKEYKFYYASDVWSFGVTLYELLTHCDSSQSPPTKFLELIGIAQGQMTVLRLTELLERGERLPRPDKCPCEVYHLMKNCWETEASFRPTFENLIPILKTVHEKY
Procedure: (§1) The ability of compounds to inhibit the activity of JAK1, JAK2, JAK3 and TYK2 is measured using a recombinant purified His or GST-tagged catalytic domain for each enzyme (JAK1, JAK2 and TYK2 are generated in-house; JAK3 was purchased from Carna biosciences, Cat #08-046) in an HTRF format biochemical assay. The reactions employs a commercial peptide substrate from Cisbio (Cat #62TK0PEC). The basic assay protocol is as follows: first, 2.5 µL of diluted compounds (4×) in DMSO are dispensed into a 384-well Optiplate. Next, 2.5 μL of enzyme (final concentrations for enzymes are: TYK2-700 ng/mL, JAK1-80.6 ng/mL, JAK2-2.1 ng/mL and JAK3-171.8 ng/mL) is added and incubated at RT for 5-20 min. Finally, 5 μl of mixture of 2×ATP [Final concentration 20 μM for TYK2, 21.43 μM for JAK1, 14.7 μM for JAK2 and 2.12 μM for JAK3]+2× Substrate [Final concentration 217 nM for TYK2, 454.7 nM for JAK1, 200 nM for JAK2 and 257.4 nM for JAK3] is added to 384 well Optiplate. Composition of Kinase assay buffer used in the assay is as follows: HEPES 50 mM, EGTA 1 mM, MgCl2 10 mM, DTT2 mM, Tween-20 0.010 and water. Then the plates are shaken and then incubated at 26.5° C. for 60 min. At the end of the incubation, 10 μL of mixture of 2× detection mix [(EU3+Cryptate (1×)+Streptavidin-XL665 (final concentration: 62.5 nM) (HTRF KinEASE-TK kit Cat #62TK0PEC)] is added to the assay plate, shaken and incubated at 26.5° C. for 60 min. Plates are then read on a Perkin Elmer Envision for HTRF signal (665 nm reading/615 nm reading). After normalization to untreated controls, the percent inhibition of the HTRF signal at each compound concentration is calculated. The plot of percent inhibition versus the log of compound concentration is fit with a 4-parameter dose response equation to calculate IC50 values.

IL-2 = assay: Selectivity assay (SEAP) IL-2 reporter cells; assay type: cell-based; details: Homo sapiens, IL-2 reporter cells on HEK293 background, read-out: Selectivity assays (SEAP) nM or E-Max % IL-2
IFN-γ = assay: Selectivity assay (SEAP) IFN-γ reporter cells; assay type: cell-based; details: Homo sapiens, IFN-γ reporter cells on HEK293 background, read-out: Selectivity assays (SEAP) nM or E-Max % IFN-γ
JAK2-JH1 = biological target: T2, JAK2-JH1 (Homo sapiens, UniProt O60674); assay: HTRF-based selectivity assay, JAK2 catalytic domain; assay type: biochemical; details: kinase domain (JH1), ATP 14.7 μM
T2 construct: recombinant purified His or GST-tagged catalytic domain for each enzyme; made in house
T2 sequence (O60674 849-1124 limits assumed): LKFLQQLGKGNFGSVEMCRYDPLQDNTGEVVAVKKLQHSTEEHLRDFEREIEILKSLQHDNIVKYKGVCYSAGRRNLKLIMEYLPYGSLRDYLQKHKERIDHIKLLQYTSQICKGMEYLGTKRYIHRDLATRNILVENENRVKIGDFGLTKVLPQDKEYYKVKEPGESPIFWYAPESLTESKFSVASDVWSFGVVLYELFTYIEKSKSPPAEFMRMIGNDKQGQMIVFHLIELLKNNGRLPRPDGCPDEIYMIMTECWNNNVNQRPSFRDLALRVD
Procedure: as §1

TYK2 [1] = biological target: T3, TYK2 (Homo sapiens, UniProt P29597); assay: HEK-Blue IL-23 reporter assay (SEAP) for TYK2 pseudokinase inhibition; assay type: cell-based; design: HEK-Blue™ IL-23 and IFNα/β cells with a stably-integrated cytokine receptor and STAT3 or STAT1; host or cells: HEK-Blue IL-23 / HEK-Blue IFNα/β cells (HEK293 background); details: HEK-Blue IL-23 cells, 10 ng/mL human recombinant IL-23, SEAP reporter; read-out: IL23 IC50
T3 sequence (P29597 whole entry): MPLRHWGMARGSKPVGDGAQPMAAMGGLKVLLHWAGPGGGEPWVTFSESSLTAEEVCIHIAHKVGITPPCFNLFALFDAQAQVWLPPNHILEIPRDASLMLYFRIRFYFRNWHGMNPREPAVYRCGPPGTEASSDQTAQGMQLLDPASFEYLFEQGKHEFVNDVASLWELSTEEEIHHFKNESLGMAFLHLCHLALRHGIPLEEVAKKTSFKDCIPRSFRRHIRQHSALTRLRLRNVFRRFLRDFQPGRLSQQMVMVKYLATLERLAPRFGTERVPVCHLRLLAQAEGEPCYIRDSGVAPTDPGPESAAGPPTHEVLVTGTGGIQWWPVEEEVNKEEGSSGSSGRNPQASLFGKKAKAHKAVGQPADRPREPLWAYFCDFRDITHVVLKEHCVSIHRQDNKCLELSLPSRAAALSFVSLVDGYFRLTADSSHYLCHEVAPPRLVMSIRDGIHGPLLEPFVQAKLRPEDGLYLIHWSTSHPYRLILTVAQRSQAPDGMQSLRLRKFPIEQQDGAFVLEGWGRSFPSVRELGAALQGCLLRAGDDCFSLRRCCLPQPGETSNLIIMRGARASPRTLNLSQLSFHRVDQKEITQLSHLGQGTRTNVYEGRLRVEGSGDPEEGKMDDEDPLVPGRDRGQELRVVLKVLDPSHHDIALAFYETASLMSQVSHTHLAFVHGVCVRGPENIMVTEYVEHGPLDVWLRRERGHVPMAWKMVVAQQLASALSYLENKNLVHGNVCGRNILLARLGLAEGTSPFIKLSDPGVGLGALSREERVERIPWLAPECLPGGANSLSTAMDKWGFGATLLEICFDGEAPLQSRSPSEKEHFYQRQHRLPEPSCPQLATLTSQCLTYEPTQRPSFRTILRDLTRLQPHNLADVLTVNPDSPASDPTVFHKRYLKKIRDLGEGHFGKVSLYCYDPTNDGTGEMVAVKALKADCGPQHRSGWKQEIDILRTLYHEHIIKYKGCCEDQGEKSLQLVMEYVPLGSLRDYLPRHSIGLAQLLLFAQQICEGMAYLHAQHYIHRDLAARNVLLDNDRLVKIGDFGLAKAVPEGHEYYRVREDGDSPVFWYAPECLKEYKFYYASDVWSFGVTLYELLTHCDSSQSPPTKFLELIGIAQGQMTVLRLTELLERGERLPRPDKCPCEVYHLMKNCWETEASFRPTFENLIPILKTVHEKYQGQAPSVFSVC
Procedure, shortened: (§2)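 HEK-Blue cells carrying cytokine receptor and STAT3 or STAT1 SEAP reporter, pretreated 60 min with compound, then stimulated with 10 ng/mL IL-23 (22–24 h) or 1 ng/mL IFNα (16–18 h). SEAP read with QUANTI-Blue; IC50 by non-linear regression versus no-inhibitor and unstimulated controls.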

TYK2 [2] = biological target: T3, TYK2; assay: HEK-Blue IFNα/β reporter assay (SEAP) for TYK2 pseudokinase inhibition; assay type: cell-based; details: HEK-Blue IFNα/β cells, 1 ng/mL human recombinant IFNα
Procedure, shortened: as §2

JAK1-JH1 = biological target: T4, JAK1-JH1 (Homo sapiens, UniProt P23458); assay: HTRF-based selectivity assay, JAK1 catalytic domain; assay type: biochemical; details: kinase domain (JH1), ATP 21.43 μM
T4 construct: recombinant purified His or GST-tagged catalytic domain for each enzyme; made in house
T4 sequence (P23458 875-1153 limits assumed): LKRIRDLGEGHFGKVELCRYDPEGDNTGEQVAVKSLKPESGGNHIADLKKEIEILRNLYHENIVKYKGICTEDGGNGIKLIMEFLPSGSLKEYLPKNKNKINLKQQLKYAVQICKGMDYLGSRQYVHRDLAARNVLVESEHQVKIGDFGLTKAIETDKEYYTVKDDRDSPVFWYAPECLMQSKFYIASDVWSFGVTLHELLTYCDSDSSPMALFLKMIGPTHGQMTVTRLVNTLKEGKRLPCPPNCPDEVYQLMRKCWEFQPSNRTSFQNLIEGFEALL
Procedure: as §1

JAK3-JH1 = biological target: T5, JAK3-JH1 (Homo sapiens, UniProt P52333); assay: HTRF-based selectivity assay, JAK3 catalytic domain; assay type: biochemical; details: kinase domain (JH1), ATP 2.12 μM
T5 construct: recombinant purified His or GST-tagged catalytic domain for each enzyme; purchased Carna biosciences 08-046
T5 sequence (P52333 822-1111 limits assumed): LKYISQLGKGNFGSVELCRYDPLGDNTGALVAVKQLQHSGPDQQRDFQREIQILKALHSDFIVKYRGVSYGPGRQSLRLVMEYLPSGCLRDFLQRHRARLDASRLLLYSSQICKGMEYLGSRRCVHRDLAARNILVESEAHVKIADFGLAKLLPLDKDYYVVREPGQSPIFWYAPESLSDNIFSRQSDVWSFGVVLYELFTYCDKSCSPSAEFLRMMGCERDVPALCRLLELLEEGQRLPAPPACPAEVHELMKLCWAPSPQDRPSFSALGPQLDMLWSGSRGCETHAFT
Procedure: as §1

SMILES | IC50 (TYK2-JH1) [µM] | IC50 (IL-2) [nM] | IC50 (IFN-γ) [nM] | IC50 (JAK2-JH1) [µM] | IC50 (TYK2 [1]) [µM] | IC50 (TYK2 [2]) [µM] | IC50 (JAK1-JH1) [µM] | IC50 (JAK3-JH1) [µM]
O=c1[nH]n(-c2ccccc2)c2cc(Nc3ccc(F)cn3)ncc12 [Compound I-2, 6-((5-fluoropyridin-2-yl)amino)-1-phenyl-1,2-dihydro-3H-pyrazolo[4,3-c]pyridin-3-one] | 30 to 90 | > 90000 | 30000 to 90000 | 10 to 30 | < 10 | < 10 | 30 to 90 | < 10
COc1cccc(-n2[nH]c(=O)c3cnc(Nc4cc(C)nc(C)n4)cc32)c1F [Compound I-37, 6-((2,6-dimethylpyrimidin-4-yl)amino)-1-(2-fluoro-3-methoxyphenyl)-1,2-dihydro-3H-pyrazolo[4,3-c]pyridin-3-one] | > 90 | > 90000 | > 90000 | > 90 | < 10 | < 10 | > 90 | > 90
COc1cccc(-n2[nH]c(=O)c3cnc(Nc4ccnc(C)n4)cc32)c1 [Compound I-49, 1-(3-methoxyphenyl)-6-((2-methylpyrimidin-4-yl)amino)-1,2-dihydro-3H-pyrazolo[4,3-c]pyridin-3-one] | > 90 | > 90000 | > 90000 | > 90 | < 10 | < 10 | > 90 | > 90
Cc1cc(Nc2cc3c(cn2)c(=O)[nH]n3-c2cccc(F)c2)nc(C)n1 [Compound I-59, 6-((2,6-dimethylpyrimidin-4-yl)amino)-1-(3-fluorophenyl)-1,2-dihydro-3H-pyrazolo[4,3-c]pyridin-3-one] | > 90 | > 90000 | > 90000 | > 90 | < 10 | < 10 | > 90 | > 90
Cc1cc(Nc2cc3c(cn2)c(=O)[nH]n3-c2ccc(Cl)cc2)nc(C)n1 [Compound I-65, 1-(4-chlorophenyl)-6-((2,6-dimethylpyrimidin-4-yl)amino)-1,2-dihydro-3H-pyrazolo[4,3-c]pyridin-3-one] | > 90 | > 90000 | > 90000 | > 90 | < 10 | > 90 | > 90 | > 90
Cc1cc(Nc2cc3c(cn2)c(=O)[nH]n3-c2ccc(OC(F)(F)F)cc2)nc(C)n1 [Compound I-69, 6-((2,6-dimethylpyrimidin-4-yl)amino)-1-(4-(trifluoromethoxy)phenyl)-1,2-dihydro-3H-pyrazolo[4,3-c]pyridin-3-one] | > 90 | > 90000 | > 90000 | > 90 | < 10 | < 10 | > 90 | > 90
Cc1cc(Nc2cc3c(cn2)c(=O)[nH]n3-c2ccc(OC(F)F)cc2)nc(C)n1 [Compound I-72, 1-(4-(difluoromethoxy)phenyl)-6-((2,6-dimethylpyrimidin-4-yl)amino)-1,2-dihydro-3H-pyrazolo[4,3-c]pyridin-3-one] | > 90 | > 90000 | > 90000 | > 90 | < 10 | < 10 | > 90 | > 90
Cc1cc(Nc2cc3c(cn2)c(=O)[nH]n3-c2ccccc2F)nc(C)n1 [Compound I-111, 6-((2,6-dimethylpyrimidin-4-yl)amino)-1-(2-fluorophenyl)-1,2-dihydro-3H-pyrazolo[4,3-c]pyridin-3-one] |  |  |  |  | < 10 | < 10 |  | 
O=c1[nH]n(-c2ccccc2F)c2cc(Nc3ccc(F)cn3)ncc12 [Compound I-112, 1-(2-fluorophenyl)-6-((5-fluoropyridin-2-yl)amino)-1,2-dihydro-3H-pyrazolo[4,3-c]pyridin-3-one] |  |  |  |  | < 10 | < 10 |  | 
Cc1cc(Nc2cc3c(cn2)c(=O)[nH]n3-c2cccc(F)c2F)nc(C)n1 [Compound I-113, 1-(2,3-difluorophenyl)-6-((2,6-dimethylpyrimidin-4-yl)amino)-1,2-dihydro-3H-pyrazolo[4,3-c]pyridin-3-one] |  |  |  |  | < 10 | < 10 |  | 

Results, then the compound that gave them:

IC50 (TYK2-JH1) [µM] | IC50 (IL-2) [nM] | IC50 (IFN-γ) [nM] | IC50 (JAK2-JH1) [µM] | IC50 (TYK2 [1]) [µM] | IC50 (TYK2 [2]) [µM] | IC50 (JAK1-JH1) [µM] | IC50 (JAK3-JH1) [µM] | SMILES
 |  |  |  | < 10 | < 10 |  |  | Cc1cc(Nc2cc3c(cn2)c(=O)[nH]n3C2CCCC2)nc(C)n1 [Compound I-114, 1-cyclopentyl-6-((2,6-dimethylpyrimidin-4-yl)amino)-1,2-dihydro-3H-pyrazolo[4,3-c]pyridin-3-one]
 |  |  |  | < 10 | < 10 |  |  | O=c1[nH]n(C2CCCC2)c2cc(Nc3ccc(F)cn3)ncc12 [Compound I-115, 1-cyclopentyl-6-((5-fluoropyridin-2-yl)amino)-1,2-dihydro-3H-pyrazolo[4,3-c]pyridin-3-one]
 |  |  |  | < 10 | 30 to 90 |  |  | COc1cccc(-n2[nH]c(=O)c3c(N)nc(Nc4cc(C)nc(C)n4)cc32)c1 [Compound I-116, 4-amino-6-((2,6-dimethylpyrimidin-4-yl)amino)-1-(3-methoxyphenyl)-1,2-dihydro-3H-pyrazolo[4,3-c]pyridin-3-one]
 |  |  |  | < 10 | 10 to 30 |  |  | Cc1cc(Nc2cc3c(cn2)c(=O)[nH]n3-c2cccc(CO)c2)nc(C)n1 [Compound I-117, 6-((2,6-dimethylpyrimidin-4-yl)amino)-1-(3-(hydroxymethyl)phenyl)-1,2-dihydro-3H-pyrazolo[4,3-c]pyridin-3-one]
 |  |  |  | < 10 | > 90 |  |  | Cc1cc(Nc2cc3c(cn2)c(=O)[nH]n3-c2cccc(C(=O)NCc3ccccn3)c2)nc(C)n1 [Compound I-118, 3-(6-((2,6-dimethylpyrimidin-4-yl)amino)-3-oxo-2,3-dihydro-1H-pyrazolo[4,3-c]pyridin-1-yl)-N-(pyridin-2-ylmethyl)benzamide]
 |  |  |  | < 10 | < 10 |  |  | Cc1cc(Nc2cc3c(cn2)c(=O)[nH]n3-c2ccc3cn(C)nc3c2)nc(C)n1 [Compound I-121, 6-((2,6-dimethylpyrimidin-4-yl)amino)-1-(2-methyl-2H-indazol-6-yl)-1,2-dihydro-3H-pyrazolo[4,3-c]pyridin-3-one]
 |  |  |  | < 10 | < 10 |  |  | Cn1cc2ccc(-n3[nH]c(=O)c4cnc(Nc5ccc(F)cn5)cc43)cc2n1 [Compound I-122, 6-((5-fluoropyridin-2-yl)amino)-1-(2-methyl-2H-indazol-6-yl)-1,2-dihydro-3H-pyrazolo[4,3-c]pyridin-3-one]
 |  |  |  | < 10 | 30 to 90 |  |  | CNC(=O)Nc1cc2c(cn1)c(=O)[nH]n2-c1ccccc1 [Compound I-125, 1-methyl-3-(3-oxo-1-phenyl-2,3-dihydro-1H-pyrazolo[4,3-c]pyridin-6-yl)urea]
 |  |  |  | < 10 | > 90 |  |  | COC(=O)Nc1cc2c(cn1)c(=O)[nH]n2-c1ccccc1 [Compound I-126, methyl (3-oxo-1-phenyl-2,3-dihydro-1H-pyrazolo[4,3-c]pyridin-6-yl)carbamate]
